# Measured values reported in ChEMBL document CHEMBL3227941, “3-Substituted adenines. In vitro enzyme inhibition and antiviral activity” (J Med Chem, 1979).
# Tests used:
# Type in all cases: functional
# Details in all cases: route intraperitoneal
# Rattus norvegicus [1] = assay: Inhibition of dopamine-beta-hydroxylase in Wistar rat assessed as reduction of adrenal catecholamine level at 50 mg/kg, ip after 24 hrs assessed per adrenal pair (reference value: 10.6 +/- 0.7 ug)
# Rattus norvegicus [2] = assay: Inhibition of dopamine-beta-hydroxylase in Wistar rat assessed as reduction of norepinephrine level in heart at 50 mg/kg, ip after 6 hrs (reference value: 0.55 +/- 0.04 ug/g)
# Rattus norvegicus [3] = assay: Inhibition of dopamine-beta-hydroxylase in Wistar rat assessed as reduction of norepinephrine level in heart at 50 mg/kg, ip after 24 hrs (reference value: 0.55 +/- 0.04 ug/g)
# Rattus norvegicus [4] = assay: Inhibition of dopamine-beta-hydroxylase in Wistar rat assessed as reduction of adrenal catecholamine level at 50 mg/kg, ip after 6 hrs assessed per adrenal pair (reference value: 10.6 +/- 0.7 ug)
# Rattus norvegicus [5] = assay: Inhibition of dopamine-beta-hydroxylase in Wistar rat assessed as reduction of adrenal catecholamine level at 50 mg/kg, ip after 3 hrs assessed per adrenal pair (reference value: 10.6 +/- 0.7 ug)
# Rattus norvegicus [6] = assay: Inhibition of dopamine-beta-hydroxylase in Wistar rat assessed as reduction of norepinephrine level in brain at 50 mg/kg, ip after 6 hrs (reference value: 0.67 +/- 0.02 ug/g)
# Rattus norvegicus [7] = assay: Inhibition of dopamine-beta-hydroxylase in Wistar rat assessed as reduction of norepinephrine level in brain at 50 mg/kg, ip after 3 hrs (reference value: 0.67 +/- 0.02 ug/g)
# Rattus norvegicus [8] = assay: Inhibition of dopamine-beta-hydroxylase in Wistar rat assessed as reduction of norepinephrine level in heart at 50 mg/kg, ip after 3 hrs (reference value: 0.55 +/- 0.04 ug/g)
# Rattus norvegicus [9] = assay: Inhibition of dopamine-beta-hydroxylase in Wistar rat assessed as reduction of norepinephrine level in brain at 50 mg/kg, ip after 24 hrs (reference value: 0.67 +/- 0.02 ug/g)
compound,measurement,setting,value
Br.CCCCCn1cnc(N)c2ncnc1-2.Cl,Activity,Rattus norvegicus [1],11.3 µg
same,Activity,Rattus norvegicus [2],0.57 µg/g
same,Activity,Rattus norvegicus [3],0.56 µg/g
same,Activity,Rattus norvegicus [4],12.1 µg
same,Activity,Rattus norvegicus [5],14.1 µg
same,Activity,Rattus norvegicus [6],0.62 µg/g
same,Activity,Rattus norvegicus [7],0.65 µg/g
same,Activity,Rattus norvegicus [8],0.59 µg/g
same,Activity,Rattus norvegicus [9],0.62 µg/g
